In PubChem BioAssay AID1996:
Values after ≈ are worked out from the molar mass of the structure shown.

Conditions: buffer; pH 7.4; 200.0 µM

| solubility kinetic | SMILES |
| --- | --- |
| > 48.7 µg/mL | O=C(O)/C=C/C(=O)Nc1ccc(S(=O)(=O)N2CCCC2)cc1 |
| 35.8 µg/mL (≈ 127 µM) | Cn1ccnc1SCC(=O)c1ccc2ccccc2c1 |
| 14.7 µg/mL (≈ 35 µM) | COc1ccc(NC(=O)c2ccc3c(c2)OCO3)cc1S(=O)(=O)N1CCOCC1 |
| 24.7 µg/mL (≈ 61.2 µM) | Cc1ccc(S(=O)(=O)CC(=O)N2CCN(c3ccc([N+](=O)[O-])cc3)CC2)cc1 |
| 55.8 µg/mL (≈ 149 µM) | Cc1ccccc1NC(=O)c1cccc(NC(=O)c2ccccc2C(=O)O)c1 |
| > 55.1 µg/mL | Cc1sc2nc(CSC(C)C(=O)N3CCOCC3)[nH]c(=O)c2c1C (stereo not drawn) |
| > 37.1 µg/mL | NC(=O)Cn1nc(C(F)(F)F)c2c1CCCC2 |
| > 46.6 µg/mL | COc1ccc(C(=O)NC(=S)N2CCOCC2)cc1OC |
| 6.2 µg/mL (≈ 14.5 µM) | CC(=O)c1ccc(N(CC(=O)Nc2cc(C)on2)S(=O)(=O)c2ccc(C)cc2)cc1 |
| 16.2 µg/mL (≈ 52.7 µM) | O=C(CS(=O)(=O)c1ccc(F)cc1)NCc1ccccc1 |
| 4.7 µg/mL (≈ 14.7 µM) | CC(C)(C)c1cc(C(=S)N2CCCC2)cc(C(C)(C)C)c1O |
| > 49.9 µg/mL | CC1CN(C(=S)Nc2ccc(SC(F)F)cc2)CC(C)O1 (stereo not drawn) |
| > 48.8 µg/mL | COc1cccc(/C=N/N2CCN(Cc3ccccc3)CC2)c1O |
| > 50.1 µg/mL | CC1CN(c2ccc([N+](=O)[O-])cc2Cl)CCN1S(C)(=O)=O (stereo not drawn) |
| > 61.4 µg/mL | COc1ccc(NC(=O)CN2C(=O)NC3(CCCc4ccccc43)C2=O)c(OC)c1 (stereo not drawn) |
| 36.6 µg/mL | Cc1cc(C)c(NC(=O)C(C)N2CCCCCC2)c(C)c1.Cl (stereo not drawn) |
| 39.2 µg/mL (≈ 138 µM) | O=C(CN1CCc2ccccc2C1)Nc1ccc(F)cc1 |
| 8 µg/mL (≈ 23.5 µM) | Cc1ccc2nc(/N=C(\N)NC(=O)NC3CCCCC3)nc(C)c2c1 |
| 33.6 µg/mL (≈ 118 µM) | O=C(COc1ccc(F)cc1)N1CCCc2ccccc21 |
| 48.1 µg/mL (≈ 146 µM) | CCN(CC)C(=O)COc1ccc2c3c(c(=O)oc2c1)CCCC3 |
| > 42.8 µg/mL | O=C(COc1ccccc1)NCC(=O)Nc1ccncc1 |
| 46.9 µg/mL (≈ 128 µM) | CN(c1ccc(C(=O)N2CCOCC2)cc1)S(=O)(=O)c1cccs1 |
| > 42.2 µg/mL | CN(C)/C=N/S(=O)(=O)c1ccc(Cl)c(Cl)c1 |

| solubility kinetic | SMILES |
| --- | --- |
| 45.7 µg/mL (≈ 149 µM) | CN1CCN(C(=O)CCC(=O)NCc2ccc(F)cc2)CC1 |
| 1.2 µg/mL (≈ 3.75 µM) | Cn1c(C(=O)N2CCC(C(N)=O)CC2)cc2cc(Cl)ccc21 |
| > 43.3 µg/mL | Cc1csc(NC(=O)CCCC(=O)c2ccccc2)n1 |
| 5.7 µg/mL (≈ 21.4 µM) | CC1SC(=S)N(c2ccc(N(C)C)cc2)C1=O (stereo not drawn) |
| > 50.2 µg/mL | CS(=O)(=O)N1CCC(C(=O)Nc2ccc(F)c(Cl)c2)CC1 |
| > 40.4 µg/mL | Cc1nnc(SCC(=O)N2CCCC2)n(N)c1=O |
| > 34.1 µg/mL | Cc1ccccc1N=C(NO)c1cccnc1 |
| 10.3 µg/mL (≈ 32.3 µM) | COc1ccc(-c2csc(NC3CCCCC3)n2)c(OC)c1 |
| 3.2 µg/mL (≈ 8.27 µM) | O=C(Nc1ccc(Cl)c(S(=O)(=O)N2CCOCC2)c1)c1cccs1 |
| 39.4 µg/mL (≈ 122 µM) | CCOC(=O)c1cnc2cc(F)c(F)cc2c1N1CCOCC1 |
| 2.5 µg/mL (≈ 8.27 µM) | FC(F)(F)c1ccc(NC(=S)NC2CCCCC2)cc1 |
| 25 µg/mL (≈ 57.8 µM) | Cc1ccc(S(=O)(=O)N(C)CC(=O)OCC(=O)c2ccc3c(c2)NC(=O)CO3)cc1 |
| 44.3 µg/mL (≈ 91.3 µM) | CC(C)[C@H](NC(=O)c1ccc([N+](=O)[O-])cc1Cl)C(=O)N1CCN(C/C=C/c2ccccc2)CC1 |
| 41.5 µg/mL | CN1CCCC(OC(=O)c2ccc(Cl)cc2)C1.Cl (stereo not drawn) |
| 5.2 µg/mL (≈ 15.7 µM) | CN(CC(=O)Nc1ccc(Cl)cc1)C(=O)CCc1ccccc1 |
| > 43.3 µg/mL | Cc1cc(C)cc(C(=O)NC2CC(C)(C)NC(C)(C)C2)c1 |
| > 47.6 µg/mL | O=C(O)c1ccc(S(=O)(=O)N2CCCc3ccccc32)cc1 |
| 1 µg/mL (≈ 3.6 µM) | Cc1c(Cl)cccc1NC(=S)Nc1ccccn1 |
| 40.4 µg/mL (≈ 126 µM) | CC1(C)C/C(=N\O)C(C(O)c2cccc([N+](=O)[O-])c2)C(C)(C)N1 (stereo not drawn) |
| > 47 µg/mL | COc1ccc(CCNC(=O)Cc2ccc(C)cc2)cc1OC |
| 23.9 µg/mL (≈ 73 µM) | O=c1[nH]c(CN2CCOCC2)nc2scc(-c3ccccc3)c12 |
| 46.8 µg/mL (≈ 130 µM) | CC(C(=O)N1CCCCCC1)N(c1ccc(Cl)cc1)S(C)(=O)=O (stereo not drawn) |
| > 38.5 µg/mL | O=C(c1ccc(Cl)cc1)n1cnc2ccccc21 |

| solubility kinetic | SMILES |
| --- | --- |
| 35.6 µg/mL (≈ 147 µM) | O=C(Nc1ccccn1)C(=O)Nc1ccccn1 |
| > 45.4 µg/mL | Cc1cccnc1NC(=O)C(c1ccccc1)c1ccccc1 |
| > 44.6 µg/mL | Cc1cc(C(F)(F)F)nn1CC(=O)N(C)c1ccccc1 |
| 1.5 µg/mL (≈ 4.85 µM) | Cc1cc(C)nc(SCc2ccc(Br)cc2)n1 |
| < 0.4 µg/mL | Cn1c(=O)c(C(=O)NCc2ccc(Cl)cc2)c(O)c2ccccc21 |
| > 48.2 µg/mL | CC(=O)NCCc1nc2ccccc2n1Cc1cc(C)ccc1C |
| 46.5 µg/mL | CC(CN1C(C)CCCC1C)OC(=O)c1ccc(F)cc1.Cl (stereo not drawn) |
| 42.1 µg/mL (≈ 86.4 µM) | CCCCN1C(=O)c2ccc(C(=O)OCC(=O)NCCc3ccc(S(N)(=O)=O)cc3)cc2C1=O |
| 9.5 µg/mL (≈ 39.4 µM) | O=C(NC(=O)c1ccccc1)Nc1ccccn1 |
| > 40.1 µg/mL | Cc1ccc(/C=N/n2c(C)nc3ccccc3c2=O)o1 |
| > 40.5 µg/mL | O=C(NCc1ccncc1)C(=O)NCc1ccncc1 |
| > 47.8 µg/mL | Cc1ccc([N+](=O)[O-])c(OCC(O)CNC(C)(C)C)c1.Cl (stereo not drawn) |
| 10.7 µg/mL (≈ 42.7 µM) | c1csc(-c2cn3ccc4ccccc4c3n2)c1 |
| 9.8 µg/mL (≈ 39.6 µM) | O=C(Nc1ccncc1)Nc1ccc(Cl)cc1 |
| 1.5 µg/mL (≈ 4.16 µM) | COc1ccc(S(=O)(=O)N2CCN(CCc3ccccc3)CC2)cc1 |
| > 57 µg/mL | O=C(O)c1cccc(NC(=S)NC(=O)c2cncc(Br)c2)c1 |
| > 36.6 µg/mL | CC(=O)NC(=O)c1cnn(-c2ccccc2)c1N |
| 4.6 µg/mL (≈ 11 µM) | Cc1ccc(S(=O)(=O)N(CC(=O)N2CCOCC2)c2ccc(C(C)C)cc2)cc1 |
| > 49.2 µg/mL | O=C(O)CN1C(=O)C2(OCCO2)c2cc(Br)ccc21 |
| 33.2 µg/mL (≈ 140 µM) | CCc1ccccc1Nc1nc2ccccc2[nH]1 |
| > 48.3 µg/mL | CC1CCC(C(C)C)C(OCC(O)CNC(C)(C)C)C1.Cl (stereo not drawn) |
| 6.1 µg/mL (≈ 20.5 µM) | O=C(Nc1cccc(NC(=O)c2ccco2)n1)c1ccco1 |
| 17.8 µg/mL (≈ 63 µM) | COc1ccc(NC(=O)N2CCc3ccccc3C2)cc1 |

| solubility kinetic | SMILES |
| --- | --- |
| > 44.2 µg/mL | S=C1SCN(Cc2ccco2)CN1Cc1ccco1 |
| > 36.3 µg/mL | O=C(C(=O)N1CCCC1)c1c[nH]c2ccccc12 |
| > 43.7 µg/mL | Cn1ccnc1SCC(=O)Nc1ccc2c(c1)OCO2 |
| 37.8 µg/mL (≈ 104 µM) | COc1ccc(NC(=O)C2=CN3CCS(=O)(=O)N=C3C=C2)c(OC)c1 |
| 8 µg/mL (≈ 25.5 µM) | O=C(CNc1cccc([N+](=O)[O-])c1)NCCCc1ccccc1 |
| 0.9 µg/mL (≈ 2.57 µM) | O=C(CN1CCc2ccccc2C1)Nc1ccc(OC(F)(F)F)cc1 |
| > 32.3 µg/mL | O=c1nc2n(c3ncccc13)CCCCC2 |
| 33.3 µg/mL (≈ 145 µM) | COc1ccc2[nH]c3c(c2c1)CC(C)NC3=O (stereo not drawn) |
| > 47.5 µg/mL | O=C(O)c1cc(-c2ccc(Cl)cc2)n(-c2ccc(F)cc2)n1 |
| 48.5 µg/mL (≈ 146 µM) | O=C(Nc1cccc([N+](=O)[O-])c1)C1CC(=O)N(C2CCCCC2)C1 (stereo not drawn) |
| 42.8 µg/mL (≈ 127 µM) | CC1CC(C)(C)NC(=S)N1CCCC(=O)Nc1ccc(F)cc1 (stereo not drawn) |
| 6.2 µg/mL (≈ 14.6 µM) | CC(C)c1ccc(C(O)P(=O)(OCc2ccccc2)c2ccc(N(C)C)cc2)cc1 (stereo not drawn) |
| > 30.9 µg/mL | O=C(N/N=C/C1CC2CCC1C2)C1CC1 (stereo not drawn) |
| 11.6 µg/mL (≈ 38.1 µM) | Cc1cccc(CSc2nc3c(c(=O)n2C)SCC3)c1 |
| 42.6 µg/mL (≈ 142 µM) | O=C1C2C3C=CC(C4CC34)C2C(=O)N1c1cc(Cl)ccn1 (stereo not drawn) |
| 11.2 µg/mL (≈ 36.1 µM) | CC(C(=O)Nc1ccccc1)N1CCN(c2ccccn2)CC1 (stereo not drawn) |
| 15.6 µg/mL (≈ 48.3 µM) | COc1cc(N=c2ssnc2Cl)c(OC)cc1Cl |
| 25.1 µg/mL (≈ 102 µM) | COc1ccccc1Oc1ccccc1[N+](=O)[O-] |
| 5.2 µg/mL (≈ 16.1 µM) | COc1ccc2c(=O)c(C(=O)NCCc3ccccc3)c[nH]c2c1 |
| < 0.2 µg/mL | CCOC(=O)c1c(N)c2cc([N+](=O)[O-])ccc2n1C |
| 45.1 µg/mL (≈ 148 µM) | COCCCNC(=S)Nc1ccc(OC(F)F)cc1C |
| 11.1 µg/mL (≈ 28.6 µM) | Cc1ccc(NC(=O)CN(C)C(=O)COc2ccccc2-c2ccccc2)cc1 |
| > 47.1 µg/mL | O=C(O)C1C2CCC(O2)C1C(=O)Nc1ccc(Cl)cc1F (stereo not drawn) |

| solubility kinetic | SMILES |
| --- | --- |
| 5.7 µg/mL (≈ 19.4 µM) | CSc1cccc(NC(=O)c2cccc3cccnc23)c1 |
| 1.4 µg/mL (≈ 4.66 µM) | NC(=O)c1ccc(CSc2nc3ccccc3s2)cc1 |
| < 0.4 µg/mL | Cc1ccc(NC(=O)c2ccc(OCc3c(C)noc3C)cc2)cc1 |
| 43.4 µg/mL (≈ 137 µM) | C=CCOC(=O)C1=C(C)NC(=O)NC1c1ccc2c(c1)OCO2 (stereo not drawn) |
| 4 µg/mL (≈ 10.9 µM) | CC1CCCCC1NCC(=O)Nc1ccccc1C(=O)Nc1ccccc1 (stereo not drawn) |
| > 27.3 µg/mL | CC1(C)N([O-])C2=C(CCCC2)[N+]1=O |
| > 46.7 µg/mL | Cc1ccc(S(=O)(=O)N2CCC3(CC2)OCCO3)c(C)c1 |
| 0.6 µg/mL (≈ 1.88 µM) | O=C(NC(=S)NCCc1ccccc1)c1cccc(Cl)c1 |
| < 0.4 µg/mL | Cc1oc(-c2ccccc2)cc1C(=O)NC1CCN(Cc2ccccc2)CC1 |
| > 52.5 µg/mL | CN(CC(O)COc1ccc2ccccc2c1)C1CCCCC1.Cl (stereo not drawn) |
| > 51.9 µg/mL | Cc1ccc(C(O)(CCN2CCCCC2)c2ccccc2)cc1.Cl (stereo not drawn) |
| > 54.8 µg/mL | COc1ccccc1P(=O)(c1ccccc1)c1ccccc1NC(C)=O (stereo not drawn) |
| 14.6 µg/mL (≈ 45.7 µM) | CCC(NC(=O)Nc1cc(C)on1)(C(F)(F)F)C(F)(F)F |
| 17 µg/mL (≈ 53.5 µM) | O=C(CN1C(=O)COc2ccc(Cl)cc21)Nc1ccccn1 |
| 26.3 µg/mL (≈ 77.5 µM) | COc1ccc2[nH]cc(CCNC(=O)c3ccc([N+](=O)[O-])cc3)c2c1 |
| > 45 µg/mL | COc1ccc(C(=O)NCCc2ccccc2)cc1[N+](=O)[O-] |
| 45.4 µg/mL (≈ 144 µM) | CCOc1ccc(Cc2onc3c2C(=O)CCC3)cc1OCC |
| > 47.3 µg/mL | CC(C)(C)C(=O)N1CCN(c2ncccc2C(F)(F)F)CC1 |
| > 42.6 µg/mL | Cc1ccc([N+](=O)[O-])c(NC2OC(CO)C(O)C2O)c1 (stereo not drawn) |
| 6.3 µg/mL (≈ 23.7 µM) | CCN(CC)c1ccc2c(C)c(Cl)c(=O)oc2c1 |
| 8.2 µg/mL (≈ 26 µM) | CCc1cccc(NC(=O)COC(=O)/C=C/c2cccs2)c1 |

| SMILES | solubility kinetic |
| --- | --- |
| Clc1ccc(N2CC2c2ccncc2)cc1 (stereo not drawn) | 32.6 µg/mL (≈ 141 µM) |
| COc1ccc(N2CCN(Cc3nc4ccccc4[nH]3)CC2)cc1 | > 48.4 µg/mL |
| Cc1ccc(-c2nc3ccccc3c(=O)n2-c2cccc(C)n2)cc1 | > 49.1 µg/mL |
| COP(=O)(Cc1ccc(C#N)o1)OC | > 32.3 µg/mL |
| CC(=O)N1CC(=O)Nc2ccc(Cl)cc2C1c1ccccc1 (stereo not drawn) | > 47.2 µg/mL |
